According to ChEMBL document CHEMBL5724914, “Linking interpersonal differences in gut microbiota composition and drug biotransformation activity” (2024):

Experiments:
[1] = The drug is tested on WLS-069 corresponding to human gut metagenome with ENA study accession number: PRJEB37062 and ENA sample accession number: ERS12561748 for biotransformation under anaerobic condition. The drug concentrations were measured over 9 timepoints collected between 0 and 24 hours of incubation by liquid-chromatography-coupled mass spectrometry (LC–MS); conditions: 2 µM
[2] = human gut metagenome, 24 h, 2 µM
[3] = The drug is tested on WLS-010 corresponding to human gut metagenome with ENA study accession number: PRJEB37062 and ENA sample accession number: ERS12561743 for biotransformation under anaerobic condition. The drug concentrations were measured over 9 timepoints collected between 0 and 24 hours of incubation by liquid-chromatography-coupled mass spectrometry (LC–MS); conditions: 2 µM
[4] = human gut metagenome, 24 h, 2 µM; remark: listed apart in the source
[5] = The drug is tested on Z-022 corresponding to mouse gut metagenome with ENA study accession number: PRJEB37062 and ENA sample accession number: ERS12561821 for biotransformation under anaerobic condition. The drug concentrations were measured over 9 timepoints collected between 0 and 24 hours of incubation by liquid-chromatography-coupled mass spectrometry (LC–MS); conditions: 2 µM
[6] = human gut metagenome, 24 h, 2 µM; remark: listed apart in the source
[7] = human gut metagenome, 24 h, 2 µM; remark: listed apart in the source
[8] = human gut metagenome, 24 h, 2 µM; remark: listed apart in the source
[9] = The drug is tested on WLS-038 corresponding to human gut metagenome with ENA study accession number: PRJEB37062 and ENA sample accession number: ERS12561745 for biotransformation under anaerobic condition. The drug concentrations were measured over 9 timepoints collected between 0 and 24 hours of incubation by liquid-chromatography-coupled mass spectrometry (LC–MS); conditions: 2 µM
[10] = human gut metagenome, 24 h, 2 µM; remark: listed apart in the source
[11] = human gut metagenome, 24 h, 2 µM; remark: listed apart in the source
[12] = human gut metagenome, 24 h, 2 µM; remark: listed apart in the source
[13] = The drug is tested on WLS-310 corresponding to human gut metagenome with ENA study accession number: PRJEB37062 and ENA sample accession number: ERS12561785 for biotransformation under anaerobic condition. The drug concentrations were measured over 9 timepoints collected between 0 and 24 hours of incubation by liquid-chromatography-coupled mass spectrometry (LC–MS); conditions: 2 µM
[14] = human gut metagenome, 24 h, 2 µM; remark: listed apart in the source
[15] = human gut metagenome, 24 h, 2 µM; remark: listed apart in the source
[16] = The drug is tested on Z-005 corresponding to metagenome with ENA study accession number: PRJEB37062 and ENA sample accession number: ERS12561805 for biotransformation under anaerobic condition. The drug concentrations were measured over 9 timepoints collected between 0 and 24 hours of incubation by liquid-chromatography-coupled mass spectrometry (LC–MS); conditions: 2 µM
[17] = The drug is tested on WLS-370 corresponding to human gut metagenome with ENA study accession number: PRJEB37062 and ENA sample accession number: ERS12561793 for biotransformation under anaerobic condition. The drug concentrations were measured over 9 timepoints collected between 0 and 24 hours of incubation by liquid-chromatography-coupled mass spectrometry (LC–MS); conditions: 2 µM
[18] = The drug is tested on WLS-039 corresponding to human gut metagenome with ENA study accession number: PRJEB37062 and ENA sample accession number: ERS12561746 for biotransformation under anaerobic condition. The drug concentrations were measured over 9 timepoints collected between 0 and 24 hours of incubation by liquid-chromatography-coupled mass spectrometry (LC–MS); conditions: 2 µM
[19] = The drug is tested on WLS-350 corresponding to human gut metagenome with ENA study accession number: PRJEB37062 and ENA sample accession number: ERS12561789 for biotransformation under anaerobic condition. The drug concentrations were measured over 9 timepoints collected between 0 and 24 hours of incubation by liquid-chromatography-coupled mass spectrometry (LC–MS); conditions: 2 µM
[20] = human gut metagenome, 24 h, 2 µM; remark: listed apart in the source
Also: call rule not given here.

SMILES	Bacterial Biotransformation [1]	Bacterial Biotransformation [2]	Bacterial Biotransformation [3]	Bacterial Biotransformation [4]	Bacterial Biotransformation [5]	Bacterial Biotransformation [6]	Bacterial Biotransformation [7]	Bacterial Biotransformation [8]	Bacterial Biotransformation [9]	Bacterial Biotransformation [10]	Bacterial Biotransformation [11]	Bacterial Biotransformation [12]	Bacterial Biotransformation [13]	Bacterial Biotransformation [14]	Bacterial Biotransformation [15]	Bacterial Biotransformation [16]	Bacterial Biotransformation [17]	Bacterial Biotransformation [18]	Bacterial Biotransformation [19]	Bacterial Biotransformation [20]
O=C(O)CCc1nc(-c2ccccc2)c(-c2ccccc2)o1 [OXAPROZIN]	Compound metabolized	Compound NOT metabolized	Compound metabolized	Compound metabolized	Compound metabolized	Compound metabolized	Compound metabolized	Compound metabolized	Compound metabolized	Compound metabolized	Compound metabolized	Compound metabolized	Compound metabolized	Compound metabolized	Compound metabolized	Compound metabolized	Compound metabolized	Compound metabolized	Compound metabolized	Compound metabolized
Cc1nc2n(c(=O)c1CCN1CCC(c3noc4cc(F)ccc34)CC1)CCCC2O (stereo not given) [PALIPERIDONE]	Compound metabolized	Compound metabolized	Compound metabolized	Compound metabolized	Compound NOT metabolized	Compound metabolized	Compound metabolized	Compound metabolized	Compound metabolized	Compound metabolized	Compound metabolized	Compound metabolized	Compound metabolized	Compound metabolized	Compound metabolized	Compound NOT metabolized	Compound metabolized	Compound metabolized	Compound metabolized	Compound metabolized
CC(C)(C)NC[C@H](O)COc1ccccc1C1CCCC1.CC(C)(C)NC[C@H](O)COc1ccccc1C1CCCC1.O=S(=O)(O)O [PENBUTOLOL SULFATE]	Compound metabolized	Compound metabolized	Compound metabolized	Compound metabolized	Compound metabolized	Compound metabolized	Compound metabolized	Compound metabolized	Compound metabolized	Compound metabolized	Compound metabolized	Compound metabolized	Compound metabolized	Compound metabolized	Compound metabolized	Compound metabolized	Compound metabolized	Compound metabolized	Compound metabolized	Compound metabolized
CCOc1ccc(NC(C)=O)cc1 [PHENACETIN]	Compound NOT metabolized	Compound NOT metabolized	Compound NOT metabolized	Compound NOT metabolized	Compound NOT metabolized	Compound NOT metabolized	Compound NOT metabolized	Compound NOT metabolized	Compound NOT metabolized	Compound NOT metabolized	Compound NOT metabolized	Compound NOT metabolized	Compound NOT metabolized	Compound NOT metabolized	Compound NOT metabolized	Compound NOT metabolized	Compound NOT metabolized	Compound NOT metabolized	Compound NOT metabolized	Compound NOT metabolized
Nc1ccc(/N=N/c2ccccc2)c(N)n1 [PHENAZOPYRIDINE]	Compound metabolized	Compound metabolized	Compound metabolized	Compound metabolized	Compound metabolized	Compound metabolized	Compound metabolized	Compound NOT metabolized	Compound metabolized	Compound metabolized	Compound metabolized	Compound metabolized	Compound metabolized	Compound metabolized	Compound metabolized	Compound metabolized	Compound metabolized	Compound metabolized	Compound metabolized	Compound metabolized
CC(C(=O)O)c1ccc2c(c1)Cc1cccnc1O2 (stereo not given) [PRANOPROFEN]	Compound metabolized	Compound metabolized	Compound metabolized	Compound metabolized	Compound metabolized	Compound metabolized	Compound metabolized	Compound metabolized	Compound metabolized	Compound metabolized	Compound metabolized	Compound metabolized	Compound metabolized	Compound metabolized	Compound metabolized	Compound metabolized	Compound metabolized	Compound metabolized	Compound metabolized	Compound metabolized
